Molecular target: T1, human MC5R (hMC5R) (Homo sapiens, UniProt P33032)
T1 construct: purchased Perkin Elmer RBXMC5M400UA
Assay: Human MC5R radioligand binding assay (membranes, [125I] NDP-MSH displacement)
Details: hMC5R binding; tested as trifluoroacetate or hydrochloride salts, or free bases; read-out: MC5R radioligand IC50
How it was run: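 Frozen human MC5R membranes incubated with test compound and in-house iodogen-labeled, HPLC-purified [125I]NDP-MSH for 1 hr at 37° C. Binding measured as displacement of the radioligand.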

T1 sequence (P33032 whole entry): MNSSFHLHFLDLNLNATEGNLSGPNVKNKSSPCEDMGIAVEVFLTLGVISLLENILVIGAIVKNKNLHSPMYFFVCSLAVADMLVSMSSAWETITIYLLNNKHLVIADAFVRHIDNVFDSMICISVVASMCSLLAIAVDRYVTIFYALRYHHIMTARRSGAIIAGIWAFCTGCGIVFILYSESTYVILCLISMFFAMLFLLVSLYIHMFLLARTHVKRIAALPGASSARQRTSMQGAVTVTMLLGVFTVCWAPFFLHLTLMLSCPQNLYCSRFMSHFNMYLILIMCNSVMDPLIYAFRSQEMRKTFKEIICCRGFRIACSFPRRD

IC50 [nM]	Structure (SMILES)
< 1000	NC[C@@H]1N[C@H](CNC(=O)c2ccc3ccccc3c2)CCN(CC(c2ccccc2)c2ccccc2)C1=O [Compound 271, N-(((3S,5S)-3-(aminomethyl)-1-(2,2-diphenylethyl)-2-oxo-1,4-diazepan-5-yl)methyl)-2-naphthamide]
< 1000	CCOC(=O)C(CN1CC[C@@H](CNC(=O)c2ccc3ccccc3c2)N[C@@H](CCCNC(=N)N)C1=O)c1ccccc1 (stereo partly drawn) [Compound 296, ethyl 3-((3S,5S)-5-((2-naphthamido)methyl)-3-(3-guanidinopropyl)-2-oxo-1,4-diazepan-1-yl)-2-phenylpropanoate]
< 100	O=C(NC[C@@H]1CCN(CC(c2ccccc2)c2ccccc2)C(=O)[C@H](CCN2CCCC2)N1)c1ccc2ccccc2c1 [Compound 367, N-(((3S,5S)-1-(2,2-diphenylethyl)-2-oxo-3-(2-(pyrrolidin-1-yl)ethyl)-1,4-diazepan-5-yl)methyl)-2-naphthamide]
< 1000	Cc1cc(C)cc(CN2CC[C@@H](CNC(=O)c3ccc4ccccc4c3)N[C@@H](CCCNC(=N)N)C2=O)c1 [Compound 286, N-(((3S,5S)-1-(3,5-dimethylbenzyl)-3-(3-guanidinopropyl)-2-oxo-1,4-diazepan-5-yl)methyl)-2-naphthamide]
< 10	CC[C@H](CN1CC[C@@H](CNC(=O)c2ccc3cc(Cl)ccc3c2)N[C@@H](CCN2CCCC2)C1=O)c1ccccc1 [Compound 409, 6-chloro-N-(((3S,5S)-2-oxo-1-((S)-2-phenylbutyl)-3-(2-(pyrrolidin-1-yl)ethyl)-1,4-diazepan-5-yl)methyl)-2-naphthamide]
< 1000	CC(=O)N[C@@H](Cc1cnc[nH]1)C(=O)N[C@@H](Cc1ccc2ccccc2c1)[C@@H]1CCN(CC(c2ccccc2)c2ccccc2)C(=O)[C@H](CCCNC(=N)N)N1 [Compound 81, (S)-2-acetamido-N-((S)-1-((3S,5S)-1-(2,2-diphenylethyl)-3-(3-guanidinopropyl)-2-oxo-1,4-diazepan-5-yl)-2-(naphthalen-2-yl)ethyl)-3-(1H-imidazol-5-yl)propanamide]
< 1000	NCC[C@@H]1N[C@H](CNC(=O)c2ccc(Cl)c(Cl)c2)CCN(Cc2ccc(Cl)cc2Cl)C1=O [Compound 502, N-(((3S,5S)-3-(2-aminoethyl)-1-(2,4-dichlorobenzyl)-2-oxo-1,4-diazepan-5-yl)methyl)-3,4-dichlorobenzamide]
< 1000	CCC(CC)CN1CC[C@@H](CNC(=O)/C=C/c2ccc(Cl)cc2)N[C@@H](CCN)C1=O [Compound 330, (E)-N-(((3S,5S)-3-(2-aminoethyl)-1-(2-ethylbutyl)-2-oxo-1,4-diazepan-5-yl)methyl)-3-(4-chlorophenyl)acrylamide]
< 100	CC[C@H](CN1CC[C@@H](CNC(=O)c2ccc(Cl)c(Cl)c2)N[C@@H](CCN2CCC(O)CC2)C1=O)c1ccccc1 [Compound 450, 3,4-dichloro-N-(((3S,5S)-3-(2-(4-hydroxypiperidin-1-yl)ethyl)-2-oxo-1-((S)-2-phenylbutyl)-1,4-diazepan-5-yl)methyl)benzamide]
< 10	O=C(NC[C@@H]1CCN(CC(c2ccccc2)c2ccccc2)C(=O)[C@H](CCN2CCCCC2)N1)c1ccc2cc(F)ccc2c1 [Compound 379, N-(((3S,5S)-1-(2,2-diphenylethyl)-2-oxo-3-(2-(piperidin-1-yl)ethyl)-1,4-diazepan-5-yl)methyl)-6-fluoro-2-naphthamide]
< 1000	NCCC[C@@H]1N[C@H](CNC(=O)c2ccc3ccccc3c2)CCN(CC2(c3ccccc3)CCCCC2)C1=O [Compound 325, N-(((3S,5S)-3-(3-aminopropyl)-2-oxo-1-((1-phenylcyclohexyl)methyl)-1,4-diazepan-5-yl)methyl)-2-naphthamide]
< 100	CC(C)NCC[C@@H]1N[C@H](CNC(=O)/C=C/c2ccc(Cl)cc2)CCN(CC(c2ccccc2)c2ccccc2)C1=O [Compound 381, (E)-3-(4-chlorophenyl)-N-(((3S,5S)-1-(2,2-diphenylethyl)-3-(2-(isopropylamino)ethyl)-2-oxo-1,4-diazepan-5-yl)methyl)acrylamide]
< 100	CCCCCN(C)CC[C@@H]1N[C@H](CNC(=O)c2ccc(Cl)c(Cl)c2)CCN(C[C@@H](CC)c2ccccc2)C1=O [Compound 444, 3,4-dichloro-N-(((3S,5S)-3-(2-(methyl(pentyl)amino)ethyl)-2-oxo-1-((S)-2-phenylbutyl)-1,4-diazepan-5-yl)methyl)benzamide]

More lines, now with the values behind:

Structure (SMILES)	IC50 [nM]
O=C(/C=C/c1ccc(Cl)cc1)NC[C@@H]1CCN(CC(c2ccccc2)c2ccccc2)C(=O)[C@H](CCN2CCCC2)N1 [Compound 380, (E)-3-(4-chlorophenyl)-N-(((3S,5S)-1-(2,2-diphenylethyl)-2-oxo-3-(2-(pyrrolidin-1-yl)ethyl)-1,4-diazepan-5-yl)methyl)acrylamide]	< 100
C=C(C)C(CC)CN1CC[C@@H](CNC(=O)c2ccc(Cl)c(Cl)c2)N[C@@H](CCN)C1=O (stereo partly drawn) [Compound 475, N-(((3S,5S)-3-(2-aminoethyl)-1-(2-ethyl-3-methylbut-3-enyl)-2-oxo-1,4-diazepan-5-yl)methyl)-3,4-dichlorobenzamide]	< 10000
CC[C@H](CN1CC[C@@H](CNC(=O)c2ccc3cc(Cl)ccc3c2)N[C@@H](CCN)C1=O)C(C)C [Compound 470, N-(((3S,5S)-3-(2-aminoethyl)-1-((S)-2-ethyl-3-methylbutyl)-2-oxo-1,4-diazepan-5-yl)methyl)-6-chloro-2-naphthamide]	< 1000
CC[C@H](CN1CC[C@@H](CNC(=O)c2ccc(Cl)c(Cl)c2)N[C@@H](CCN)C1=O)c1ccccc1 [Compound 464, N-(((3S,5S)-3-(2-aminoethyl)-2-oxo-1-((S)-2-phenylbutyl)-1,4-diazepan-5-yl)methyl)-3,4-dichlorobenzamide]	< 1000
CC[C@H](CN1CC[C@@H](CNC(=O)c2ccc3cc(Cl)ccc3c2)N[C@@H](CCN2CCOCC2)C1=O)c1ccccc1 [Compound 515, 6-chloro-N-(((3S,5S)-3-(2-morpholinoethyl)-2-oxo-1-((S)-2-phenylbutyl)-1,4-diazepan-5-yl)methyl)-2-naphthamide]	< 100
C=C(C)C(CC)CN1CC[C@@H](CNC(=O)c2ccc3cc(Cl)ccc3c2)N[C@@H](CCN)C1=O (stereo partly drawn) [Compound 477, N-(((3S,5S)-3-(2-aminoethyl)-1-(2-ethyl-3-methylbut-3-enyl)-2-oxo-1,4-diazepan-5-yl)methyl)-6-chloro-2-naphthamide]	< 10
O=C(NCC[C@@H]1CCN(CC(c2ccccc2)c2ccccc2)C(=O)[C@H](CCN2CCCCC2)N1)c1ccc2ccccc2c1 [Compound 306, N-(2-((3S,5R)-1-(2,2-diphenylethyl)-2-oxo-3-(2-(piperidin-1-yl)ethyl)-1,4-diazepan-5-yl)ethyl)-2-naphthamide]	< 1000
C=C(C)[C@H](CC)CN1CC[C@@H](CNC(=O)c2ccc3cc(Cl)ccc3c2)N[C@@H](CCN2CCCCC2)C1=O [Compound 479, 6-chloro-N-(((3S,5S)-1-((S)-2-ethyl-3-methylbut-3-enyl)-2-oxo-3-(2-(piperidin-1-yl)ethyl)-1,4-diazepan-5-yl)methyl)-2-naphthamide]	< 10
N=C(N)NCCC[C@@H]1N[C@H](CNC(=O)C2CC2c2ccccc2)CCN(CC(c2ccccc2)c2ccccc2)C1=O (stereo partly drawn) [Compound 174, N-(((3S,5S)-1-(2,2-diphenylethyl)-3-(3-guanidinopropyl)-2-oxo-1,4-diazepan-5-yl)methyl)-2-phenylcyclopropanecarboxamide]	< 1000
CNC(=N)NCCC[C@@H]1N[C@H](CNC(=O)[C@H]2Cc3ccccc3CN2)CCN(CC(c2ccccc2)c2ccccc2)C1=O [Compound 130, (R)—N-(((3S,5S)-1-(2,2-diphenylethyl)-3-(3-(3-methylguanidino)propyl)-2-oxo-1,4-diazepan-5-yl)methyl)-1,2,3,4-tetrahydroisoquinoline-3-carboxamide]	< 10000
CC[C@H](CN1CC[C@@H](CNC(=O)c2ccc(Cl)c(Cl)c2)N[C@@H](CCN2CCCCC2)C1=O)C(C)C [Compound 462, 3,4-dichloro-N-(((3S,5S)-1-((S)-2-ethyl-3-methylbutyl)-2-oxo-3-(2-(piperidin-1-yl)ethyl)-1,4-diazepan-5-yl)methyl)benzamide]	< 100
CC[C@H](CN1CC[C@@H](CNC(=O)c2ccc(Cl)c(Cl)c2)N[C@@H](CCN(C)c2ccccc2)C1=O)c1ccccc1 [Compound 425, 3,4-dichloro-N-(((3S,5S)-3-(2-(methyl(phenyl)amino)ethyl)-2-oxo-1-((S)-2-phenylbutyl)-1,4-diazepan-5-yl)methyl)benzamide]	< 1000
N=C(N)NCCC[C@@H]1N[C@H](CNC(=O)c2ccc3ccccc3c2)CCN(Cc2ccc3ccccc3c2)C1=O [Compound 251, N-(((3S,5S)-3-(3-guanidinopropyl)-1-(naphthalen-2-ylmethyl)-2-oxo-1,4-diazepan-5-yl)methyl)-2-naphthamide]	< 10000
O=C(NC[C@@H]1CCN(CC(c2ccccc2)c2ccccc2)C(=O)[C@H](CCN2CCCCC2)N1)c1cc(-c2ccc(Cl)cc2)on1 [Compound 414, 5-(4-chlorophenyl)-N-(((3S,5S)-1-(2,2-diphenylethyl)-2-oxo-3-(2-(piperidin-1-yl)ethyl)-1,4-diazepan-5-yl)methyl)isoxazole-3-carboxamide]	< 100
NCC[C@@H]1N[C@H](CNC(=O)c2ccc3cc(Cl)ccc3c2)CCN(Cc2ccc(Cl)cc2Cl)C1=O [Compound 507, N-(((3S,5S)-3-(2-aminoethyl)-1-(2,4-dichlorobenzyl)-2-oxo-1,4-diazepan-5-yl)methyl)-6-chloro-2-naphthamide]	< 100
N=C(N)NCCC[C@@H]1N[C@H](CNC(=O)c2ccc3ccccc3c2)CCN(Cc2ccccc2)C1=O [Compound 249, N-(((3S,5S)-1-benzyl-3-(3-guanidinopropyl)-2-oxo-1,4-diazepan-5-yl)methyl)-2-naphthamide]	< 10000
